Values joined by “and” are separate entries in the source; they are usually repeats but may differ in a detail not shown here. Equal entries are not always repeated.
Biological target: T1, KDM4A F185A (asKDM4A) in HEK293T cells (Homo sapiens, UniProt O75164, F185A)
T1 construct: we generated the F185A mutation in full-length KDM4A carrying all of the functional domains; host or cells: HEK293T
T1 sequence (O75164 1-1064 F185A): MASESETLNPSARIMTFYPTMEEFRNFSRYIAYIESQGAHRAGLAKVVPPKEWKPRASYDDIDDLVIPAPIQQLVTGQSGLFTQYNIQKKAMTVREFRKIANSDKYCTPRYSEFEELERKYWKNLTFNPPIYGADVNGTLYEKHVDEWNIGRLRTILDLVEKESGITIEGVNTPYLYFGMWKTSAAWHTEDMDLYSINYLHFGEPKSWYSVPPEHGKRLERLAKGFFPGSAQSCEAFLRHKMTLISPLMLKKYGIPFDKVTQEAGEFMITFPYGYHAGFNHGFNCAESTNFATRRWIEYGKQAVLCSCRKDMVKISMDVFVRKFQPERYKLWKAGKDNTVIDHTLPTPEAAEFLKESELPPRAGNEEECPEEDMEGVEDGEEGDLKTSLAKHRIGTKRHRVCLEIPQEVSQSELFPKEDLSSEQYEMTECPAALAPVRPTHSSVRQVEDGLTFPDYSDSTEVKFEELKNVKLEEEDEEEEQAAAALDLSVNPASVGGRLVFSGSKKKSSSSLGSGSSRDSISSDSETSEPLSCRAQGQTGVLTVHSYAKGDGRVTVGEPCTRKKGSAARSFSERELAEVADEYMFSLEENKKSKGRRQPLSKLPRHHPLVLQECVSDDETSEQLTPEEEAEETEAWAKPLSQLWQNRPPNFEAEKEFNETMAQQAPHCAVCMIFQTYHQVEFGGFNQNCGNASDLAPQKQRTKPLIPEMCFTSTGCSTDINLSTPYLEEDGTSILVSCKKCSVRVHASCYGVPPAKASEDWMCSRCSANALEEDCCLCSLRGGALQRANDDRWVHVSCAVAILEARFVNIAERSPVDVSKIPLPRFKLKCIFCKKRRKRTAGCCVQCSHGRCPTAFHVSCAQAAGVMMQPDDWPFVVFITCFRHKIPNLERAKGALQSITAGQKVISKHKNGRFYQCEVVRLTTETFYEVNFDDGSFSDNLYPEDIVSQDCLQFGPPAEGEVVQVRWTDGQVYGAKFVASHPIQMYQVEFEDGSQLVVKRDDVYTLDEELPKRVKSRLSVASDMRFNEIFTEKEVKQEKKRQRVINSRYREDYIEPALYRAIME
Experiment: Histone extraction, digestion and tandem mass spectrometry (relative abundance of histone modifications)
Format: cell-based
Settings: peptide form; samples 6A_1, 6A_2
Procedure: HEK293T cells were transiently transfected with asKDM4A and treated with varying concentrations of 6A or 6B. […] To further confirm the activity of the enzyme–inhibitor pair, we performed tandem mass spectrometry of tryptic histones isolated from HEK293T cells expressing asKDM4A in the presence or absence of 100 μM 6A. […]
22. Histone extraction, digestion and tandem mass spectrometry
HEK 293-T cells (ATCC CRL-1573) were plated into 6-well plates (Corning) in DMEM (Corning) supplemented with 10% FBS (Corning) and 1X Antibiotic/Antimycin
(Penicillin/Streptomycin/Fungiozone) (Cytiva HyClone) in an incubator held at 37 °C with 5%
CO2. At 75% confluency, cells were transfected with 2.5 µg KDM4A F185A or Empty Vector with 5µg Thermo Turbofect (FERR0531). After 4 hours, the media was washed and 200 µM of 6A or equivalent volume of DMSO was added and left to incubate at 37 °C for 24 hours. Cells were then washed with 1X PBS (Corning) followed by trypsinization (Gibco TrypLE™ Express Enzyme). Collected cells were centrifuged at 3000xg for 3 minutes, followed by washing with 1X PBS and centrifuged for an additional 3000xg for 3 minutes. Histone proteins were extracted from the pellet as described by25 to ensure good-quality identification and quantification of single histone marks. Briefly, cell pellets were dissolved in 100 µL of cold 0.2 M H2SO4 and incubated for 2 hours rotating in a cold room (4 °C). Aliquots were then centrifuged at 3400xg for 5 minutes […]
at 4 °C and the supernatant was added to a fresh tube. 100% cold TCA was then added to a final volume of 33% volume/volume TCA/supernatant and left to incubate for 1 hour in a cold room (4 °C). Samples were then centrifuged at 3400xg for 5 min at 4 °C and the supernatant was discarded. The precipitate was then washed with cold acetone/0.1% HCl and centrifuged at 3400xg for 5 minutes at 4 °C. The supernatant was discarded, and the precipitate was washed with cold acetone and centrifuged at 3400xg for 5 minutes at 4 °C. The supernatant was discarded, and the pellet was dried using a vacuum centrifuge.
The pellet was dissolved in 50 mM ammonium bicarbonate, pH 8.0, and histones were subjected to derivatization using 5 µL of propionic anhydride and 14 µL of ammonium hydroxide (all Sigma Aldrich) to balance the pH at 8.0. The mixture was incubated for 15 min and the procedure was repeated. Histones were then digested with 1 µg of sequencing grade trypsin (Promega) diluted in 50mM ammonium bicarbonate (1:20, enzyme:sample) overnight at room temperature.
Derivatization reaction was repeated to derivatize peptide N-termini. The samples were dried in a […]
Sample desalting: Prior to mass spectrometry analysis, samples were desalted using a 96-well plate filter (Orochem) packed with 1 mg of Oasis HLB C-18 resin (Waters). Briefly, the samples were resuspended in 100 µl of 0.1% TFA and loaded onto the HLB resin, which was previously equilibrated using 100 µl of the same buffer. After washing with 100 µl of 0.1% TFA, the samples were eluted with a buffer containing 70 µl of 60% acetonitrile and 0.1% TFA and then dried in a […]
LC-MS/MS Acquisition and Analysis: Samples were resuspended in 10 µl of 0.1% TFA and loaded onto a Dionex RSLC […] (Thermo Scientific), coupled online with an Orbitrap Fusion Lumos (Thermo Scientific). Chromatographic separation was performed with a two-column system, consisting of a C-18 trap cartridge (300 µm ID, 5 mm length) and a picofrit analytical column (75 µm ID, 25 cm length) packed in-house with reversed-phase Repro-Sil Pur C18-AQ 3 µm resin. Peptides were separated using a 30 min gradient from 1-30% buffer B (buffer A: 0.1% formic acid, buffer B: 80% acetonitrile + 0.1% formic acid) at a flow rate of 300 nl/min.
The mass spectrometer was set to acquire spectra in a data-independent acquisition (DIA) mode.

With `CCCCCCCCOC(=O)C(=O)NC(CC(C)C)C(=O)O` [6A, L-Leu octyl-ester NOG] the “Relative abundance, H3_9_17 K9me1S10ph” value was 7.8% and 0.0004%, the “Relative abundance, H3_9_17 K9me1S10phK14ac” value was 0.0342% and 0.0031% and the “Relative abundance, H3_9_17 K9me2” value was 22.1% and 17.2%. The “Relative abundance, H3_9_17 K9me2K14ac” value was 19.6% and 31.3%, the “Relative abundance, H3_9_17 K9me2S10ph” value was 0.317% and 0.0091% and the “Relative abundance, H3_9_17 K9me2S10phK14ac” value was 0.125% and 0.1%. The “Relative abundance, H3_9_17 K9me3” value was 10.5% and 10.1%, the “Relative abundance, H3_9_17 K9me3K14ac” value was 4.9% and 8.1% and the “Relative abundance, H3_9_17 K9me3S10ph” value was 0.178% and 0.2%. For the same molecule, the “Relative abundance, H3_9_17 K9me3S10phK14ac” value was 0.0363% and 0.177%, the “Relative abundance, H3_9_17 K14ac” value was 8.4% and 11.5% and the “Relative abundance, H3_9_17 S10ph” value was 0.0768% and 0.0083%. For the same molecule, the “Relative abundance, H3_9_17 S10phK14ac” value was 0.0443% and 0.0008%, the “Relative abundance, H3_9_17 unmod” value was 9.8% and 11.8% and the “Relative abundance, H3_18_26 K18ac” value was 0.249% and 0.34%. For the same molecule, the “Relative abundance, H3_18_26 K18acK23ac” value was 0.647% and 0.316%, the “Relative abundance, H3_18_26 K18me1” value was 0.0% and 0.0012% and the “Relative abundance, H3_18_26 K18me1K23me1” value was 0.0%. For the same molecule, the “Relative abundance, H3_18_26 K23ac” value was 50.6% and 44.0%, the “Relative abundance, H3_18_26 K23me1” value was 0.0% and 0.0005% and the “Relative abundance, H3_18_26 unmod” value was 48.5% and 55.3%. The “Relative abundance, H3_27_40 K27ac” value was 0.0296% and 0.0%, the “Relative abundance, H3_27_40 K27me1” value was 3.2% and 3.4% and the “Relative abundance, H3_27_40 K27me1K36me1” value was 5.3% and 3.7%. The “Relative abundance, H3_27_40 K27me1K36me2” value was 8.3% and 9.8%, the “Relative abundance, H3_27_40 K27me1K36me3” value was 1.2% and 1.9% and the “Relative abundance, H3_27_40 K27me1S28ph” value was 0.0041% and 0.002%. The “Relative abundance, H3_27_40 K27me2” value was 15.4% and 12.9%, the “Relative abundance, H3_27_40 K27me2K36me1” value was 9.5% and 8.5% and the “Relative abundance, H3_27_40 K27me2K36me2” value was 22.1% and 30.2%. The “Relative abundance, H3_27_40 K27me2S28ph” value was 0.0281% and 0.0017%, the “Relative abundance, H3_27_40 K27me3” value was 11.7% and 6.9% and the “Relative abundance, H3_27_40 K27me3K36me1” value was 3.6% and 2.6%. The “Relative abundance, H3_27_40 K27me3K36me2” value was 3.5% and 4.6%, the “Relative abundance, H3_27_40 K27me3S28ph” value was 0.0216% and 0.0012% and the “Relative abundance, H3_27_40 K36me1” value was 1.9% and 1.7%. The “Relative abundance, H3_27_40 K36me2” value was 3.2% and 4.8%, the “Relative abundance, H3_27_40 K36me3” value was 5.9% and 4.4% and the “Relative abundance, H3_27_40 S28ph” value was 0.0007% and 0.1%. For the same molecule, the “Relative abundance, H3_27_40 unmod” value was 5.0% and 4.6%, the “Relative abundance, H3_41_49 Y41ph” value was 0.001% and 0.173% and the “Relative abundance, H3_41_49 unmod” value was 100.0% and 99.8%. For the same molecule, the “Relative abundance, H3_54_63 K56ac” value was 0.0%, the “Relative abundance, H3_54_63 K56me2” value was 0.0% and the “Relative abundance, H3_54_63 K56me3” value was 0.0%. The “Relative abundance, H3_73_83 K79ac” value was 0.0%, the “Relative abundance, H3_73_83 K79me3” value was 4.6% and 0.0% and the “Relative abundance, H4_4_17 K5ac” value was 1.3% and 2.1%. For the same molecule, the “Relative abundance, H4_4_17 K5acK8ac” value was 0.3% and 1.0%, the “Relative abundance, H4_4_17 K5acK8acK12ac” value was 0.261% and 1.3% and the “Relative abundance, H4_4_17 K5acK8acK12acK16ac” value was 0.0284% and 2.6%. The “Relative abundance, H4_4_17 K5acK8acK16ac” value was 0.279% and 0.9%, the “Relative abundance, H4_4_17 K5acK12ac” value was 0.8% and 3.1% and the “Relative abundance, H4_4_17 K5acK12acK16ac” value was 0.471% and 3.1%. The “Relative abundance, H4_4_17 K5acK16ac” value was 0.7% and 2.5%, the “Relative abundance, H4_4_17 K8ac” value was 1.3% and 1.4% and the “Relative abundance, H4_4_17 K8acK12ac” value was 0.211% and 0.6%. The “Relative abundance, H4_4_17 K8acK12acK16ac” value was 1.2% and 4.4%, the “Relative abundance, H4_4_17 K8acK16ac” value was 1.5% and 3.9% and the “Relative abundance, H4_4_17 K12ac” value was 2.8% and 4.2%. The “Relative abundance, H4_4_17 K12acK16ac” value was 3.3% and 7.5%, the “Relative abundance, H4_4_17 K16ac” value was 24.2% and 24.4% and the “Relative abundance, H4_4_17 unmod” value was 61.3% and 37.2%. The “Relative abundance, H4_20_23 K20ac” value was 0.3% and 1.3%, the “Relative abundance, H4_20_23 K20me1” value was 48.4% and 36.1% and the “Relative abundance, H4_20_23 K20me3” value was 3.5% and 3.6%. For the same molecule, the “Relative abundance, H4_20_23 unmod” value was 37.7% and 34.8%, the “Relative abundance, H4_24_35 unmod” value was 100.0% and the “Relative abundance, H4_40_45 K44ac” value was 0.0025% and 0.039%. For the same molecule, the “Relative abundance, H4_40_45 unmod” value was 100.0%, the “Relative abundance, H4_79_92 unmod” value was 100.0% and the “Relative abundance, H33_27_40 K27ac” value was 0.0069% and 0.0%. For the same molecule, the “Relative abundance, H33_27_40 K27me1” value was 3.6% and 2.5%, the “Relative abundance, H33_27_40 K27me1K36me1” value was 4.8% and 3.5% and the “Relative abundance, H33_27_40 K27me1K36me2” value was 11.0% and 11.1%. For the same molecule, the “Relative abundance, H33_27_40 K27me1K36me3” value was 2.1% and 3.4% and the “Relative abundance, H33_27_40 K27me1S28ph” value was 0.0023% and 0.024%.
